Measured values from PMC11943482, “A Chalcone Synthase-like Bacterial Protein Catalyzes Heterocyclic C-Ring Cleavage of Naringenin to Alter Bioactivity Against Nuclear Receptors in Colonic Epithelial Cells” (Metabolites, 2025).

Target: nuclear receptor 4A1 (NR4A1) (Homo sapiens, UniProt P22736)
Experiment: tryptophan fluorescence quenching with the isolated LBD ([…])
Assay type: binding

nuclear receptor 4A1 (NR4A1), sequence (P22736 360-598 limits assumed): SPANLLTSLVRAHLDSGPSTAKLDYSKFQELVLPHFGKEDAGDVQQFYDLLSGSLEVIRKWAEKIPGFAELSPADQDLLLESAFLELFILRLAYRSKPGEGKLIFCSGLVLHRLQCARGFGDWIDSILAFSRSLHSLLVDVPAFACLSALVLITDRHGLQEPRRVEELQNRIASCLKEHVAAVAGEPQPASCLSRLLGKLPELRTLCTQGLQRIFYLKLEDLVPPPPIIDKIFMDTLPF

**Q.** `O=C1C[C@@H](c2ccc(O)cc2)Oc2cc(O)cc(O)c21` [naringenin] was tested. Which Kd did it give?
**A.** 4.5 µM
